Experimental data from US10316049B2, “Tank-binding kinase inhibitor compounds” (Gilead Sciences, Inc., priority 2015, dated 2019).

How the values were obtained:
[1] = biological target: T1, IKKε (Homo sapiens, UniProt Q14164); experiment: TR-FRET enzymatic activity assay, IKKε; type: biochemical; conditions: read-out: IKKϵ IC50; note: full length recombinant IKKε at 0.3 nM
T1 construct: TBK1 and IKKε were expressed and purified as full length recombinant proteins; made in house
T1 sequence (Q14164 1-716): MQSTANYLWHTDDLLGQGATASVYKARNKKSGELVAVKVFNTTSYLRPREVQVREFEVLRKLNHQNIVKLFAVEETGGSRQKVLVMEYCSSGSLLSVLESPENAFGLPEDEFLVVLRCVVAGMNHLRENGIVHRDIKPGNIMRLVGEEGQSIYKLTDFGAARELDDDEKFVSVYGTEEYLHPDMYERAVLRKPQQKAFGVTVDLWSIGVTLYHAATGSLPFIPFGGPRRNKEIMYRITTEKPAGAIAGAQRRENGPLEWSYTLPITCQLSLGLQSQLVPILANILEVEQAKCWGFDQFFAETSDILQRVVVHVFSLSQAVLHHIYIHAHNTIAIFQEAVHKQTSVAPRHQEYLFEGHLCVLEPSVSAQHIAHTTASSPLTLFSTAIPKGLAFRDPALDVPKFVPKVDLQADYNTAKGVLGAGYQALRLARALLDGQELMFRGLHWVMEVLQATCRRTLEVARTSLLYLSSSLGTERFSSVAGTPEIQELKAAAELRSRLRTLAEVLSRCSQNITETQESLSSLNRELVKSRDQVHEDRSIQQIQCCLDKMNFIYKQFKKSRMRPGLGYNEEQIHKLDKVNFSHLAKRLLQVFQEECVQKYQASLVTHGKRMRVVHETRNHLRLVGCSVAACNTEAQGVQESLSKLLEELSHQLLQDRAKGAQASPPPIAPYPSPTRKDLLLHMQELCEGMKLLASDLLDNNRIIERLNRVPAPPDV
Method in brief: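 IC50 values are geometric means of at least four determinations, fitted to a four-parameter curve after normalising to 1 μM staurosporine and DMSO. Signal: Eu-cryptate anti-phospho antibody plus 125 nM streptavidin-XL665 on a biotinylated peptide. Full-length recombinant enzyme reacted 240 min, 25 °C, then EDTA-quenched.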

[2] = biological target: T2, TBK1 (Homo sapiens, UniProt Q9UHD2); experiment: TR-FRET enzymatic activity assay, TBK1; type: biochemical; note: full length recombinant TBK1 at 2.5 nM
T2 construct: TBK1 and IKKε were expressed and purified as full length recombinant proteins; made in house
T2 sequence (Q9UHD2 1-729): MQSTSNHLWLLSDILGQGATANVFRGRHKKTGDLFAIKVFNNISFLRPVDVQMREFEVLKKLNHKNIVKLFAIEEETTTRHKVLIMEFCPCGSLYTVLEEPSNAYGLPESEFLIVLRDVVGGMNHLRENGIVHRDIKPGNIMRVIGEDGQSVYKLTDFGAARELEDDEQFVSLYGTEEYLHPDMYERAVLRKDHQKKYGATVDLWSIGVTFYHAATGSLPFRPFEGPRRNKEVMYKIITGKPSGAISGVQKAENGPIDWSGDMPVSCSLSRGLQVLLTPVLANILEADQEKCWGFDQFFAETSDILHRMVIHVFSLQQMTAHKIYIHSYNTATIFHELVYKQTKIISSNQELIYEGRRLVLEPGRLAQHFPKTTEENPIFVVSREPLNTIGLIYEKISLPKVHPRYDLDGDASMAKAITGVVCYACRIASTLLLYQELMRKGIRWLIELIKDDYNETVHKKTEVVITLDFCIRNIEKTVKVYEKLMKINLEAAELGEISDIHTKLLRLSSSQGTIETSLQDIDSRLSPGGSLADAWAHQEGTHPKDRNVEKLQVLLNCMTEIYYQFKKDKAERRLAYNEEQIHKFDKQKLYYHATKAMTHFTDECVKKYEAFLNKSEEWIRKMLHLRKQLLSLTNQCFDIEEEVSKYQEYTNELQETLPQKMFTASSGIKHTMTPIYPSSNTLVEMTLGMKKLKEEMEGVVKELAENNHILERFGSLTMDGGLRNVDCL
Method in brief: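 TR-FRET detected phosphorylation of a biotinylated serine/threonine peptide using 125 nM streptavidin XL665 plus europium-labelled anti-phospho antibody. Reactions with full-length recombinant kinase ran 240 min at 25 °C before EDTA quench. Values are geometric-mean IC50s (n ≥ 4) from four-parameter dose-response fits against staurosporine and DMSO controls.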

Row | Compound | IC50 [1] [nM] | IC50 [2] [nM]
1 | N#Cc1cc(-c2ccnc(NC(=O)C3CC3)c2)ccc1N1CCC[C@@H]1C(N)=O [Example 95, (R)-1-(2-cyano-4-(2-(cyclopropanecarboxamido)pyridin-4-yl)phenyl)pyrrolidine-2-carboxamide] | > 1000 | 258
2 | C[C@@H]1CCCN1c1ccc(-c2ccnc(NC(=O)C3CC3)c2)cc1C#N [Example 96, (R)—N-(4-(3-cyano-4-(2-methylpyrrolidin-1-yl)phenyl)pyridin-2-yl)cyclopropanecarboxamide] | 231 | 33
3 | CO[C@@H]1CCN(c2ccc(-c3ccnc(NC(=O)C4CC4)c3)cc2C#N)C1 [Example 97, (R)—N-(4-(3-cyano-4-(3-methoxypyrrolidin-1-yl)phenyl)pyridin-2-yl)cyclopropanecarboxamide] | 477 | 270
4 | N#Cc1cc(-c2ccnc(NC(=O)C3CC3)c2)ccc1CC1CCOCC1 [Example 98, N-(4-(3-cyano-4-((tetrahydro-2H-pyran-4-yl)methyl)phenyl)pyridin-2-yl)cyclopropanecarboxamide] | > 1000 | > 1000
5 | Cn1ccc([C@H]2C[C@@H]2C(=O)Nc2cc(-c3ccc(O[C@H]4CCN(C(=O)CO)CC4(F)F)c(C#N)c3)ccn2)n1 [Example 103, (1S,2S)—N-(4-(3-cyano-4-(((S)-3,3-difluoro-1-(2-hydroxyacetyl)piperidin-4-yl)oxy)phenyl)pyridin-2-yl)-2-(1-methyl-1H-pyrazol-3-yl)cyclopropane-1-carboxamide] | 14.3 | 5.7
6 | CC(C)(C)OC(=O)N1CC[C@H](Oc2ccc(-c3cc(NC(=O)C4CC4)ncn3)cc2C#N)C(F)(F)C1 [Example 104, Tert-butyl (S)-4-(2-cyano-4-(6-(cyclopropanecarboxamido)pyrimidin-4-yl)phenoxy)-3,3-difluoropiperidine-1-carboxylate] | > 1000 | > 1000
7 | N#Cc1cc(-c2cc(NC(=O)C3CC3)ncn2)ccc1F [Example 105, N-(6-(3-cyano-4-fluorophenyl)pyrimidin-4-yl)cyclopropanecarboxamide] | > 1000 | > 1000
8 | CC(Oc1ccc(-c2cc(NC(=O)C3CC3)ncn2)cc1C#N)C(F)(F)F (stereo not drawn) [Example 106, N-(6-(3-cyano-4-((1,1,1-trifluoropropan-2-yl)oxy)phenyl)pyrimidin-4-yl)cyclopropanecarboxamide] | > 1000 | 301
9 | Cc1ncc(C(=O)N2CC[C@H](Oc3ccc(-c4cc(NC(=O)C5CC5)ncn4)cc3C#N)[C@H](F)C2)o1 [Example 107, N-(6-(3-cyano-4-(((3R,4S)-3-fluoro-1-(2-methyloxazole-5-carbonyl)piperidin-4-yl)oxy)phenyl)pyrimidin-4-yl)cyclopropanecarboxamide] | 160 | 48.9

More lines, now with the values ahead:

Row | IC50 [1] [nM] | IC50 [2] [nM] | Compound
10 | 322 | 186 | Cc1noc([C@@H]2C[C@H]2C(=O)Nc2cc(-c3ccc(OC4CCOCC4)c(C#N)c3)ccn2)n1 [Example 108, (1R,2R)—N-(4-(3-cyano-4-((tetrahydro-2H-pyran-4-yl)oxy)phenyl)pyridin-2-yl)-2-(3-methyl-1,2,4-oxadiazol-5-yl)cyclopropane-1-carboxamide]
11 | > 1000 | 826 | N#Cc1cc(-c2cc(NC(=O)C3CC3)ncn2)ccc1O [Example 109, N-(6-(3-cyano-4-hydroxyphenyl)pyrimidin-4-yl)cyclopropanecarboxamide]
12 | 737 | 317 | N#Cc1cc(-c2cc(NC(=O)C3CC3)ncn2)ccc1O[C@@H]1CCN(C(=O)CO)CC1(F)F [Example 110, (R)—N-(6-(3-cyano-4-((3,3-difluoro-1-(2-hydroxyacetyl)piperidin-4-yl)oxy)phenyl)pyrimidin-4-yl)cyclopropanecarboxamide]
13 | 254 | 105 | N#Cc1cc(-c2cc(NC(=O)C3CC3)ncn2)ccc1O[C@@H]1CCN(C(=O)CO)C[C@H]1F [Example 111, N-(6-(3-cyano-4-(((3R,4R)-3-fluoro-1-(2-hydroxyacetyl)piperidin-4-yl)oxy)phenyl)pyrimidin-4-yl)cyclopropanecarboxamide]
14 | 209 | 107 | C[C@H]1C[C@@H](Oc2ccc(-c3cc(NC(=O)C4CC4)ncn3)cc2C#N)CCN1C(=O)CO [Example 112, N-(6-(3-cyano-4-(((2S,4S)-1-(2-hydroxyacetyl)-2-methylpiperidin-4-yl)oxy)phenyl)pyrimidin-4-yl)cyclopropanecarboxamide]
15 | > 1000 | 8.1 | COc1ccc([C@@H]2C[C@H]2C(=O)Nc2cc(-c3ccc(O[C@H]4CCN(C(=O)CO)CC4(F)F)c(C#N)c3)ncn2)cn1 [Example 113, (1R,2R)—N-(6-(3-cyano-4-(((S)-3,3-difluoro-1-(2-hydroxyacetyl)piperidin-4-yl)oxy)phenyl)pyrimidin-4-yl)-2-(6-methoxypyridin-3-yl)cyclopropane-1-carboxamide]
16 | 36 | 181 | Cn1ccnc1[C@@H]1C[C@H]1C(=O)Nc1cc(-c2ccc(O[C@H]3CCN(C(=O)CO)CC3(F)F)c(C#N)c2)ncn1 [Example 114, (1R,2R)—N-(6-(3-cyano-4-(((S)-3,3-difluoro-1-(2-hydroxyacetyl)piperidin-4-yl)oxy)phenyl)pyrimidin-4-yl)-2-(1-methyl-1H-imidazol-2-yl)cyclopropane-1-carboxamide]
17 | 7.1 | 8.1 | N#Cc1cc(-c2ccnc(NC(=O)[C@@H]3C[C@H]3c3ccc(C4CC4)nc3)c2)ccc1O[C@H]1CCN(C(=O)CO)CC1(F)F [Example 115, (1R,2R)—N-(4-(3-cyano-4-(((S)-3,3-difluoro-1-(2-hydroxyacetyl)piperidin-4-yl)oxy)phenyl)pyridin-2-yl)-2-(6-cyclopropylpyridin-3-yl)cyclopropane-1-carboxamide]
18 | > 1000 | 851 | N#Cc1cc(-c2ccnc(NC(=O)C3CC34CCOC4)c2)ccc1OC1CCOCC1 (stereo not drawn) [Example 117, N-(4-(3-Cyano-4-((tetrahydro-2H-pyran-4-yl)oxy)phenyl)pyridin-2-yl)-5-oxaspiro[2.4]heptane-1-carboxamide]
19 | 632 | 871 | N#Cc1cc(-c2ccnc(NC(=O)[C@H]3[C@@H]4COC[C@@H]43)c2)ccc1OC1CCOCC1 [Example 118, (1R,5S,6R)—N-(4-(3-cyano-4-((tetrahydro-2H-pyran-4-yl)oxy)phenyl)pyridin-2-yl)-3-oxabicyclo[3.1.0]hexane-6-carboxamide]
20 | 6.2 | 7.2 | Cn1cc([C@@H]2C[C@H]2C(=O)Nc2cc(-c3ccc(O[C@H]4CCN(C(=O)CO)CC4(F)F)c(C#N)c3)ccn2)cn1 [Example 121, (1R,2R)—N-(4-(3-cyano-4-(((S)-3,3-difluoro-1-(2-hydroxyacetyl)piperidin-4-yl)oxy)phenyl)pyridin-2-yl)-2-(1-methyl-1H-pyrazol-4-yl)cyclopropane-1-carboxamide]
21 | 4.9 | 6 | Cn1cc([C@H]2C[C@@H]2C(=O)Nc2cc(-c3ccc(O[C@H]4CCN(C(=O)CO)CC4(F)F)c(C#N)c3)ccn2)cn1 [Example 122, (1S, 2S)—N-(4-(3-cyano-4-(((S)-3,3-difluoro-1-(2-hydroxyacetyl)piperidin-4-yl)oxy)phenyl)pyridin-2-yl)-2-(1-methyl-1H-pyrazol-4-yl)cyclopropane-1-carboxamide]
